Consider three compounds from patent publication US20230270763A1, “METHOD OF TREATING C[…] CANNABINOIDS AND DERIVATIVES” (PASCAL BIOSCIENCES INC., priority 2020, published 2023).

In data set [1] the test system is SARS-CoV-2. The settings on record: reported by Nguyen et al., March 2021; cited from earlier work.
Data set [2] has as its system SARS-CoV-2 Toronto strain. In words: cytopathic effect screening assay, SARS-CoV-2 Toronto strain in Vero E6 cells. Type of data set: cell-based. The settings on record: Severe acute respiratory syndrome coronavirus 2, Vero C1008; Vero E6 cells mixed with virus; CBD 20 nM to 10 μM; cell viability after 72 hours; FIG. 1; read-out: EC50, inhibition of cell death of virally-infected cells.

Data set [3] deals with SARS-CoV-2 Everett strain. Briefly: protection of Calu-3 cells from SARS-CoV-2 Everett strain-induced cytotoxicity (CellTiter Glo 2.0). Conditions: read-out: IC50, protection of Calu-3 cells from SARS2-induced cytotoxicity.
The subject of data set [4] is Vero E6 cells. The settings on record: Vero E6 cultures not exposed to virus; 20 nM to 10 μM; 72 hours.
Where [5] appears, read: Severe acute respiratory syndrome coronavirus 2, Calu-3, 96 h.

pEC50, pIC50: −log10 of the molar value. Read-outs that look alike come from different tables or passages of the source.

The term pEC50 denotes the EC50 on a negative log10 scale, so that one unit is a factor of ten. The pIC50 is the IC50 on a negative log10 scale, so that one unit is a factor of ten. Consider `C=C(C)[C@@H]1CCC(C)=C[C@H]1c1c(O)cc(CCCCC)cc1O` [CBD, (−)-Cannabidiol], for which the “effect on SARS-CoV-2 replication” value in data set [1] is recorded as “inhibits SARS-CoV-2 replication”. The pEC50 in data set [2] is 5.07. Besides, the pIC50 in data set [3] (setting [5]) was 6.92. Besides, the “cytotoxicity over the concentration range tested” value in data set [4] is listed as “No cytotoxicity”.

`C=C(C)[C@@H]1CCC(C)=C[C@H]1c1c(O)cc(CCC)cc1O` [cannabidivarin, (−)-Cannabidivarin]: the pIC50 in data set [3] (setting [5]) was 7.37.

As to `CCCCCc1cc(O)c(C/C=C(\C)CCC=C(C)C)c(O)c1` [cannabigerol, Cannabigerol], the pIC50 in data set [3] (Calu-3, 96 hours, MOI 0.5 to 2.0, three-fold dilutions from 10 μM) was 6.92.
